Experimental data published in US11377499B2, “Targeting the cofilin pathway” (priority 2017, dated 2022).

Legend:
[1] = tested on: cofilin phosphorylation in resting memory CD4 T cells; assay: Intracellular p-cofilin staining and flow cytometry after HIV-1(AD8) or gp120(BAL) stimulation; type: cell-based, human
Text: In addition to CXCR4, CCR5 is used by R5-tropic viruses that predominate early in the infection; R5 HIV infects and depletes gut memory CD4 T cells, leading to chronic immune activation (20, 21). Whether HIV-mediated CCR5 signaling can also lead to cofilin activation in memory T cells was investigated. In contrast to X4 viruses, which infect both memory and naïve CD4 T cells, R5 viruses infect a subpopulation of memory CD4 T cells (FIG. 1A). CCR5 is present on only around 30% of resting memory CD4 T cells (FIG. 1B). Given this low percentage, a flow cytometry-based intracellular phospho-cofilin staining method was used to quantify cofilin in individual cells. […]
A3R5.7 cell is acquired from the NIH AIDS Reagent Program. […] Viral titer (TCID50) was determined on the Rev-dependent GFP indicator cell (61), Rev-A3R5-GFP (Virongy, Manassas, Va.). […] T cells were stained with anti-CD45RO-Pacific Blue monoclonal antibody (BD Pharmingen) and analyzed by Flow Cytometry for CD45RO and GFP expression. […]
One million cells were fixed, permeabilized with methanol, washed, and then stained with an anti-human p-cofilin antibody using a commercial intracellular staining kit (Virongy, Manassas, Va.) for 60 min at room temperature. […] Cells were washed twice, and then analyzed on a FACSCalibur (BD Biosciences, San Jose, Calif.).

[2] = tested on: cofilin phosphorylation in A3R5.7 T cells or blood resting CD4 T cells; assay: Western blot for p-cofilin and cofilin after R10015 treatment; type: cell-based, human
Text: Cofilin hyperactivation may be associated with a migratory impairment of CCR6+ and CXCR3+ helper T cells (Th), which are prevented from trafficking from the blood stream to peripheral organs even in aviremic HIV patients on long-term ART (5). T cell migration and homing is controlled by chemotactic signaling which activates cycles of cofilin phosphorylation and dephosphorylation to drive actin dynamics for cell motility. Phosphorylation of cofilin is regulated by LIM-domain kinase (LIMK), which inactivates cofilin through serine 3 phosphorylation (28). To quantify the effect of cofilin hyperactivation on T cell migration, a recently discovered LIMK inhibitor, R10015 (29) was used, to mimic cofilin activation in HIV infection. A human CD4 T cell line, A3R5.7, or blood resting CD4 T cells were treated with different dosages of R10015 during chemotaxis (FIG. 3). […] At around 15 to 20 μM of R10015, cofilin phosphorylation was reduced to around 50%, approximately the level seen in HIV patients (FIGS. 3A and 3B).
One million cells were lysed in NuPAGE LDS Sample Buffer (Invitrogen, Carlsbad, Calif.) followed by sonication. Samples were heated at 70° C. for 10 minutes, separated by SDS-PAGE, and then transferred onto nitrocellulose membranes (Invitrogen, Carlsbad, Calif.). The membranes were washed in TBST for 3 minutes and then blocked for 30 minutes at room temperature with 5% milk. […]

[3] = tested on: A3R5.7 T cells or blood resting CD4 T cells; assay: Chemotaxis trans-well assay in response to SDF-1; type: cell-based, human
Procedure: (§1) Cells were stained with PE-labeled Rat anti-human CCR5 antibody (Biolegend, San Diego, Calif.) or with a mouse anti-human α4β7 integrin antibody (Act-1) (obtained from NIH AIDS Reagent Program) followed by secondary antibody staining with Alexa Fluor 647-labelled goat anti-mouse antibodies (Invitrogen, Carlsbad, Calif.). Cells were stained on ice in PBS+0.1% BSA for 30 minutes, washed with cold PBS-0.5% BSA, and then analyzed on a FACSCalibur (BD Biosciences, San Jose, Calif.).
A half million cells were resuspended into 100 μl RPMI-1640 medium and then added to the upper chamber of a 24-well trans-well plate (Corning, Corning, N.Y.). The lower chamber was filled with 600 μl of medium premixed with SDF-1 (40 ng/ml). The plate was incubated at 37° C. for 2 hours, and then the upper chamber was removed and cells in the lower chamber were counted. Where indicated, different concentrations of R10015 (29) or DMSO were added to cell culture, incubated for 1 hour at 37° C. before adding cells to the upper chamber. Cells were also treated with the anti-human α4β7 integrin antibody (Act-1) or the control mouse IgG1 antibody for 15 minutes before adding cells to the upper chamber. Act-1 (1 μg/ml) was also added to the lower chamber with SDF-1 (40 ng/ml).

LIMK = details: previously identified (30); cited from earlier work
[4] = prevents therapeutic use; cited from earlier work
[5] = tested on: cofilin phosphorylation in resting memory and IL-7-cultured naïve CD4 T cells (α4β7 integrin); assay: Intracellular p-cofilin staining and flow cytometry after Act-1 stimulation; type: cell-based, human; details: memory T cells treated with PTX 2 hours, then Act-1 1 μg/ml; 30 min
Procedure: In the human peripheral blood, high levels of α4β7 were detected on a subpopulation of resting memory CD4 T cells (36).
One million cells were fixed, permeabilized with methanol, washed, and then stained with an anti-human p-cofilin antibody using a commercial intracellular staining kit (Virongy, Manassas, Va.) for 60 min at room temperature. Cells were washed twice and stained with Alexa Fluor 488-labeled chicken anti-rabbit antibodies (Invitrogen, Carlsbad, Calif.). Cells were washed twice, and then analyzed on a FACSCalibur (BD Biosciences, San Jose, Calif.).

[6] = tested on: α4β7 on naïve CD4 T cells; assay: Surface staining of α4β7 and flow cytometry; type: cell-based, human; details: naïve T cells cultured in IL-7 (5 ng/ml) for 3 days; FIG. 5
Text: All protocols involving human subjects were reviewed and approved by the George Mason University institutional review board. Peripheral blood mononuclear cells (PBMC) were purified from peripheral blood of HIV-negative donors by centrifugation in Lymphocyte Separation Medium (Corning, Corning, N.Y.), and resting CD4 T cells were further purified by two rounds of negative selection as previously described (13, 54). Briefly, for the first-round depletion, monoclonal antibodies against human CD14, CD56 and HLA-DR, DP, and DQ (BD Biosciences, San Jose, Calif.) were used. For the second-round depletion, monoclonal antibodies against human CD8, CD11b, and CD19 (BD Biosciences, San Jose, Calif.) were used. Antibody-bound cells were depleted using Dynabeads Pan Mouse IgG (Invitrogen, Carlsbad, Calif.). […]
as §1

Cc1nnc(C(C)C)n1C1C[C@H]2CC[C@@H](C1)N2CC[C@H](NC(=O)C1CCC(F)(F)CC1)c1ccccc1 (stereo in doubt) [maravoric]
cofilin activation by gp120(BAL) after pretreatment with CCR5 blocker ([1]; maravoric 1 μM for 1 hour, then gp120(BAL) 100 nM, FIG. 1D): largely abrogated

COC(=O)c1ccc2nc(C3CCN(c4ncnc5[nH]cc(Cl)c45)CC3)[nH]c2c1 [R10015]
cofilin phosphorylation reduced to ([2]; around 15 to 20 μM R10015, one hour, A3R5.7 or blood resting CD4 T cells): around 50%
dephosphorylation of cofilin ([2]; different dosages of R10015, one hour, FIGS. 3A and 3B): dosage-dependent dephosphorylation of cofilin
decrease in migrating T cells ([3]; 15 μM or 20 μM R10015 (50% reduction in cofilin phosphorylation), A3R5.7 and blood T cells, SDF-1 40 ng/ml): 20-40%
percentage of migrating α4β7^high T cells ([3]; R10015 alone, control 8.90%, FIG. 4F): 4.52%
percentage of the CCR7^+ T cell subpopulation among migrating cells ([3]; R10015 and Act-1, FIG. 8): not altered
impairment of T cell chemotaxis ([3]; different dosages of R10015, SDF-1 40 ng/ml, FIGS. 3C and 3D): dosage-dependent impairment of T cell chemotaxis

C=C1[C@@H](O)[C@@H]2O[C@]3(CC[C@H](/C=C/[C@@H](C)[C@@H]4CC(C)=C[C@@]5(O[C@H](C[C@@](C)(O)C(=O)O)CC[C@H]5O)O4)O3)CC[C@H]2O[C@@H]1[C@@H](O)C[C@H](C)[C@H]1O[C@@]2(CCCCO2)CC[C@H]1C [okadaic acid]
LIMK activation, cofilin phosphorylation and actin polymerization (LIMK): activate LIMK and enhance cofilin phosphorylation and actin polymerization
toxicity [4]: high toxicity

pertussis toxin
cofilin activation (dephosphorylation) following exposure to R5-HIV ([1]; resting memory CD4 T cells, pertussis toxin 100 ng/ml for 1 hour, then HIV(AD8), FIG. 1C): largely abrogated late cofilin activation
Act-1-mediated cofilin activation after PTX [5]: late inhibition of cofilin activation

B1: IL-7: cytokine used to culture naïve T cells for α4β7 surface receptor upregulation (protein, UniProt P13232 26-177, looked up)
Interleukin-7: DCDIEGKDGKQYESVLMVSIDQLLDSMKEIGSNCLNNEFNFFKRHICDANKEGMFLFRAARKLRQFLKMNSTGDFDLHLLKVSEGTTILLNCTGQVKGRKPAALGEAQPTKSLEENKSLKEQKKLNDLCFLKRLLQEIKTCWNKILMGTKEH
α4β7 surface expression [6]: greatly upregulate α4β7 on the cell surface
